Measured values taken from US7973219B2, “Method for producing transgenic plants resistant to weed control compounds which disrupt the porphyrin pathways of plants” (Sumitomo Chemical Company, Limited, priority 1998, dated 2011).

Legend:
[1] = system: tobacco bearing the introduced Arabidopsis thaliana PPO(A220V) gene; test: Leaf piece chlorophyll test, tobacco with Arabidopsis thaliana PPO(A220V) gene; assay type: in vivo; settings: 2.0 ppm, 7 days in a light place, treated vs untreated leaf pieces, Example 37
Excerpt: Tobacco leaf pieces cultured sterilely were infected with the Agrobacterium strain and, according to the same manner as described in Example 5, tobacco bearing the introduced Arabidopsis thaliana PPO(A220V) gene was obtained.
Leaves of the tobacco bearing the introduced both Arabidopsis thaliana PPO(A220V) gene and gene encoding the variant tobacco chelatase subunit produced in Example 36, those bearing the introduced Arabidopsis thaliana PPO(A220V) gene produced in Example 35, and the control recombinant tobacco leaves produced in Example 5were collected, and each leaf was divided into the right and left equivalent pieces along the main vein. One of the pieces was treated with an aqueous solution containing 2.0 ppm PPO inhibitory-type herbicidal compound of Structure 8, while the other piece was not treated with the compound. These leaf pieces were placed on MS medium containing 0.8% agar and allowed to stand at room temperature for 7 days in a light place. Then, each leaf piece was ground in 5 ml of 80% aqueous acetone solution in a mortar with a pestle to extract chlorophyll. The extract was diluted 10 times with 80% aqueous acetone solution and the absorbance was measured at 750 nm, 663 nm and 645 nm to calculate the total chlorophyll content according to the method described by Macknney G., J. Biol. Chem. (1941) 140, p 315. […]

[2] = system: E. coli BT3/pACYCSP+pRASSL8 strain; test: Growth of E. coli BT3/pACYCSP+pRASSL8 with herbicidal compound; assay type: cell-based, Escherichia coli; settings: 1 ppm, 18 hours culture, Table 16
Excerpt: According to the description of Gibson, L. C. D. et al., Proc. Natl. Acad. Sci. USA, 92; p 1941 (1995), the DNA fragment containing bchH gene prepared in Example 1 was digested with the restriction enzymes NdeI and BglII. The resultant DNA fragment was inserted between NdeI restriction site and BamHI restriction site of expression vector pET11a (manufactured by Stratagene) to obtain plasmid pETBCH (FIG. 1). This plasmid pETBCH was introduced into E. coli BL21(DE3) strain competent cells (manufactured by Stratagene) according to the manual attached to the competent cells to obtain E. coli BL21(DE3)/pETBCH strain. […] When the absorbance at 600 nm of the liquid culture medium became about 0.6, isopropyl β-D-thiogalactopyranoside (IPTG) was added to the liquid culture medium so that the final concentration was 0.4 mM, and the culture was continued for about additional 20 hours. […]
These E. coli strains were inoculated into YPT medium containing 1 ppm of the PPO inhibitory-type herbicidal compound represented by Structure 8, 100 μg/ml ampicillin, 15 μg/ml chloramphenicol, 10 μg/ml kanamycin, 10 μg/ml hemin and 50 μg/ml aminolevulinic acid, cultured under dark conditions or light conditions according to the same manner as in Example 2. Then, 18 hours after initiation of culture, the absorbance of the liquid culture medium was measured at 600 nm. […]

[3] = system: E. coli BT3/pACYCSP+pYAGY strain; test: Growth of E. coli BT3/pACYCSP+pYAGY with herbicidal compound; assay type: cell-based, Escherichia coli; settings: 1 ppm, 18 hours culture, Table 15

C#CCOc1cc(N2C(=O)C3=C(CCCC3)C2=O)c(F)cc1Cl [Structure 8]
resistant level [1]: 12.2%
Relative absorbance ([2]; in the dark): 1.0
Relative absorbance ([2]; in the light): 0.79
Relative absorbance ([3]; in the dark): 0.99
Relative absorbance ([3]; in the light): 0.48
